Literature values in US20180055752A1, “TOPICAL COMPOSITIONS TO REDUCE HAIR GROWTH” (The Regents of the University of California, priority 2016, published 2018).
“Also recorded” adds a separate entry of the source. Like-named read-outs stand apart in the source and are kept apart here.

Assays:
[1] = eight children treated for hypoglycemia of infancy
deer hair follicle = settings: tolbutamide 1 mM
[2] = test system: Kir6.2/SUR1 and SUR2B K-ATP channels
[3] = test system: cultured human hair follicles

| Structure (SMILES) | hypertrichosis as side effect [1] | inhibition of hair follicle growth (deer hair follicle; glibenclamide at a single concentration) | K-ATP channel subtype selectivity and potency [2] | effect on anagen [3] | effect on hair follicle growth stimulated by minoxidil / diazoxide (deer hair follicle; 10 μM minoxidil) | K-ATP channel subtype selectivity and potency ([2]; listed as Tolbutamide) |
| --- | --- | --- | --- | --- | --- | --- |
| CC1=NS(=O)(=O)c2cc(Cl)ccc2N1 [diazoxide] | all developed hypertrichosis | – | – | – | – | – |
| COc1ccc(Cl)cc1C(=O)NCCc1ccc(S(=O)(=O)NC(=O)NC2CCCCC2)cc1 [glibenclamide] | – | did not inhibit deer hair follicle growth | nonselectively blocks both SUR1 and SUR2B forms with high affinity; also recorded: non-selectively blocks both SUR1 and SUR2B forms with high affinity | – | – | – |
| CCCCNC(=O)NS(=O)(=O)c1ccc(C)cc1 [tolbutamide] | – | – | selectively inhibits Kir6.2/SUR1 K-ATP channels with low potency | shorten anagen | abolished the effect of 10 μM minoxidil, and diazoxide | selectively inhibits Kir6.2/SUR1 KATP channels with low potency |
